From patent US20130039928A1, “COMPOSITIONS AND METHODS FOR REVERSING CORTICOSTEROID RESISTANCE OR TREATING RESPIRATORY INFECTIONS” (priority 2010, published 2013)

Experiments:
[1] = test system: THP-1 macrophages; test: Phagocytosis of FITC-PA in THP-1 macrophages; format: cell-based, human
Description: BMDM were isolated by culturing bone marrow cells in the presence of 10 ng/ml granulocyte-macrophage colony-stimulating factor (PeproTech) for 7 days. Murine macrophages were cultured in RPMI 1640 medium supplemented with 10% FBS and 1% penicillin-streptomycin. The human THP-1 cell line (American Type Culture Collection, Manassas, Va.) was grown in RPMI 1640 medium supplemented with 10% non-heat-inactivated fetal bovine serum and β-mercaptoethanol per manufacturer's instructions. Macrophage differentiation occurred through supplementation with 20 ng/ml Phorbol 12-myristate 13-acetate (Sigma Aldrich, St. Louis, Mo.) for 48 h.
Bacterial phagocytosis was quantified using a flow cytometry analysis.
THP-1 cells were infected with lentivirus particles containing MARCO shRNA (Open Biosystems, Huntsville, Ala.). Puromycin supplemented medium ensured positive selection of lentivirus plasmid-expres sing cells, and knockdown of MARCO mRNA and protein was confirmed by both real-time PCR and western blot.

[2] = test system: GSH; details: COPD alveolar macrophages, 5 μM for 16 h
Description: (§1) For inducing corticosteroid resistance, PMs were exposed to cigarette smoke condensate (CSC, 100 μg/ml; Murty Pharmaceuticals, Lexington, Ky.) for 16 h. Exposure to S-nitrosoglutathione (GSNO, 10 μM) was limited to 4 h. […] For assessing corticosteroid responsiveness, macrophages were incubated with dexamethasone (1 μM, Sigma) for 1 h followed by LPS (100 ng/ml, Sigma) for additional 4 h.
(§2) HDAC activity was measured using a fluorescent derivative of ε-acetyl-lysine from Enzo life sciences (Farmingdale, N.Y.) according to the manufacturer's recommendations. HDAC2 was immunoprecipitated for analysis of enzymatic activity.

[3] = test system: HDAC; details: COPD alveolar macrophages, versus vehicle
Description: as §1, §2

[4] = test system: HDAC2; format: cell-based, human
Description: as §1, §2
Macrophage cell or lung tissue extracts were prepared by using 100 μL of immunoprecipitation buffer (50 mM Tris-HCl, pH 8.0, 150 mM NaCl, 1.0% Triton X-100, 0.5% NP-40, 0.1% SDS, 0.5% deoxycholate, and complete protease inhibitor cocktail) from Roche (Morristown, N.J.). The lysis mixture was incubated on ice for 15 minutes and microcentrifuged for 10 minutes at 4° C. Extracts were precleared with 20 μL protein A/G sepharose beads (a 50:50 mix) from Thermo scientific (Rockford, Ill.) and 2 μg of normal IgG. After microcentrifugation, 20 μL of protein A/G sepharose conjugated with 5 μg of antibody was used to precipitate HDAC2 (Santa Cruz Biotechnology, Santa Cruz, Calif.) overnight at 4° C. with rotation. The immune complexes were pelleted with gentle centrifugation, washed twice with 1 mL of immunoprecipitation buffer, and divided equally for the final wash for the activity assay and immunoblotting. For the HDAC assay, immunoprecipitates were resuspended in the activity assay buffer (50 mM TrisHCl, pH 8.0; 10% glycerol; 1 mM dithiothreitol; 0.1 mM EDTA, complete protease inhibitor cocktail). For HDAC2-specific western blotting, immune complexes were washed three times with the immunoprecipitation buffer and finally resuspended in Laemmli buffer for the SDS-PAGE.

[5] = test system: SNO proteins; details: anti-SNO immunoblot, verified by DAN assay, vs vehicle
Description: S-nitrosylated proteins were detected by using the nitrate/nitrite fluorometric assay kit from Cayman chemicals (Ann Arbor, Mich.) according to the manufacturer's instructions. For HDAC2-specific nitrosylation detection, cells were lysed in buffer (50 mM Tris-HCl, pH 8.0, 150 mM NaCl, 1% Nonidet P-40, 0.5% deoxycholic acid, 0.1% SDS). These lysates were then subjected to immunoprecipitation by using an anti-HDAC2 antibody as described above. The immunoprecipitates were washed twice with lysis buffer and twice with PBS. The pellets were resuspended in 500 μL of PBS. After the addition of 100 μM HgCl2 and 100 μM DAN, the samples were incubated in the dark at 25° C. for 30 minutes, and 1 M NaOH was added. The generated fluorescent triazole from the reaction of the DAN with the NO released from the HDAC2 protein was measured by using an excitation wavelength of 375 nm and an emission wavelength of 450 nm. As a negative control, the antibody alone in lysis buffer was immunoprecipitated. The resulting background fluorescence intensity was subtracted for each experiment.

## C[S+]([O-])CCCCN=C=S (centres unmarked) [sulforaphane]
[1]; THP-1 macrophages transfected with Luc-shRNA
  phagocytosis of FITC-Pseudomonas aeruginosa: significantly elevated phagocytosis
[1]; THP-1 macrophages with MARCO-shRNA
  phagocytosis of FITC-Pseudomonas aeruginosa: but not in MARCO-shRNA
[2]
  GSH levels: significantly elevated
[3]
  enzymatic activity of total HDAC: significantly elevated
[4]; COPD alveolar macrophages, P<0.01 versus vehicle
  enzymatic activity of HDAC2: approximately 2 fold
[4]; in the presence of BSO
  HDAC2 activity: failed to increase HDAC2 activity
[4]; treatment after GSNO exposure of alveolar macrophages
  HDAC2 enzymatic activity: significantly increased HDAC2 activity
[5]
  SNO proteins in lysates: significant reduction in SNO proteins
